The record followed here is US7220720B2, “Melanin-concentrating hormone analogs” (Merk & Co., Inc., priority 2000, dated 2007).

Where two headings read alike, the source gives them in different places. Where a SMILES comes first, the peptide text is derived from it. Bridges are numbered along the chain shown (N, C = ends).

Assay [1] deals with T1, human MCH receptor (Homo sapiens, UniProt Q99705). Put plainly: Aequorin bioluminescence functional assay in 293-AEQ17 cells transfected with human MCH receptor. It is filed as cell-based. On the set-up: expressed in transfected cells; host or cells: 293-AEQ17 (aequorin-expressing HEK-293 reporter line), transient lipofectamine transfection, pcDNA-3 vector; Activity Activation %: concentration or dose not given beside the values. Conditions: for % Activation at 10 μM: Table 1, aequorin functional assay. The method, then: The aequorin bioluminescence assay is a reliable test for measuring the activity of G protein-coupled receptors that couple through the Gα protein subunit family consisting of Gq and Gll and leads to the activation of phospholipase C, mobilization of intracellular calcium and activation of protein kinase C.
Following approximately 40 hours of expression the apo-aequorin in the cells was charged for 4 hours with coelenterazine (10 μM) under reducing conditions (300 μM reduced glutathione) in ECB buffer (140 mM NaCl, 20 mM KCl, 20 mM HEPES-NaOH [pH=7.4], 5 mM glucose, 1 mM MgCl2, 1 mM CaCl2, 0.1 mg/ml bovine serum albumin).
The cells were harvested, washed once in ECB medium and resuspended to 500,000 cells/ml. 100 μl of cell suspension (corresponding to 5×10^4 cells) was then injected into the test plate containing MCH or MCH analogs, and the integrated light emission was recorded over 30 seconds, in 0.5 second units. 20 μL of lysis buffer (0.1% final Triton X-100 concentration) was then injected and the integrated light emission recorded over 10 seconds, in 0.5 second units. The “fractional response” values for each well were calculated by taking the ratio of the integrated response to the initial challenge to the total integrated luminescence including the Triton X-100 lysis response.

In assay [2] the target is T1, human MCH receptor. Put plainly: Radiolabeled MCH-R binding assay: inhibition of [125I]-human MCH (Phe13, Tyr19 substituted) binding to cell membranes (filter or SPA format). On the set-up: expressed in transfected cells. The method, then:
Cell membranes were prepared on ice. Each T-75 flask was rinsed twice with 10 ml of Enzyme-free Cell Dissociation Buffer (Specialty Media, Lavallette, N.J.), and the cell monolayer was detached in an additional 10 ml of Enzyme-free Cell Dissociation Buffer by incubation at room temperature for 10 minutes. Dissociated cells were centrifuged (500×g for 10 minutes at 4° C.), resuspended in 5 ml homogenization buffer (10 mM Tris-HCl, pH 7.4, 0.01 mM Pefabloc, 10 μM phosphoramidon, 40 μg/ml bacitracin) and then homogenized using a glass homogenizer (10–15 strokes). The homogenate was centrifuged for 10 minutes (1,000×g at 4° C.). The resulting supernatant was then centrifuged at 38,700×g for 15 minutes at 4° C. Pelleted membranes were resuspended (passed through 25 gauge needle 5 times), snap-frozen on liquid nitrogen, and stored at −80° C. until use.
Binding was performed in a 96-well filter assay or Scintillation Proximity Assay (SPA)-based format using cell membranes from a stable CHO or HEK-293 cell line expressing the MCH receptor. For the filter assay, reactions were performed at 20° C. for 1 hour in a total volume of 0.2 ml containing: 0.05 ml of membrane suspension (˜3 μg protein), 0.02 ml of [^125I]-human MCH (Phe^13, Tyr^19 substituted; 30 pM), 0.01 ml of competitor and 0.12 ml of binding buffer (50 mM Tris-HCl, pH 7.4, 10 mM MgCl2, 2 mM EDTA, 200 μg/ml bacitracin, 1 μM phosphoramidon).
Bound radioligand was separated by rapid vacuum filtration (Packard Filtermate 96-well cell harvester) through GF/C filters pretreated for 1 hour with 1% polyethylenimine. After application of the membrane suspension to the filter, the filters were washed 3 times with 3 ml each of ice-cold 50 mM Tris-HCl, pH 7.4, 10 mM MgCl2, 2 mM EDTA, 0.04% Tween 20 and the bound radioactivity on the filters was quantitated by scintillation counting (TopCount device).
For the SPA-based assay, WGA-PVT beads (NEN Life Sciences Products) were resuspended in Dulbecco's PBS with calcium and magnesium (500 mg beads in 4 ml PBS). For each 96-well assay plate, 0.18 ml of beads was pre-coated with MCH receptor by mixing with 0.2 ml MCH receptor CHO cell membranes (˜0.2–4 mg protein) and 1.5 ml SPA assay buffer (50 mM Tris-HCl, pH 7.4, 10 mM MgCl2, 2 mM EDTA, 0.1% BSA, 12% glycerol). The suspension was mixed gently for 20 minutes, 12.3 ml of assay buffer and protease inhibitors were added (final concentration given): 2 μg/ml leupeptin, 10 μM phosphoramidon, 40 μg/ml bacitracin, 5 μg/ml aprotinin, 0.1 mM Pefabloc.
Coated beads were kept on ice until use. For each well, 0.145 ml of beads were added to Optiplate assay plates (Packard 6005190), followed by 0.002–0.004 ml of competitor and 0.05 ml of [^125I]-human MCH (Phe^13, Tyr^19 substituted; 30 pM). Binding reactions were allowed to proceed at room temperature for 3 hours. Quantitation was performed by scintillation counting (TopCount device).

Where [3] appears, read: Table 3, N-methyl-amino acid analogs.
Where [4] appears, read: Table 5, position 10 modification.
Setting [5] is: Table 6, position 13 modification.
Where [6] appears, read: Table 7, combinations and position 8.
Setting [7] is: Table 5, position 10 modification, read-out: Activity IC50.
Setting [8] is: Table 1, SPA based assay, read-out: Binding Assay IC50.

T1 sequence (Q99705 whole entry): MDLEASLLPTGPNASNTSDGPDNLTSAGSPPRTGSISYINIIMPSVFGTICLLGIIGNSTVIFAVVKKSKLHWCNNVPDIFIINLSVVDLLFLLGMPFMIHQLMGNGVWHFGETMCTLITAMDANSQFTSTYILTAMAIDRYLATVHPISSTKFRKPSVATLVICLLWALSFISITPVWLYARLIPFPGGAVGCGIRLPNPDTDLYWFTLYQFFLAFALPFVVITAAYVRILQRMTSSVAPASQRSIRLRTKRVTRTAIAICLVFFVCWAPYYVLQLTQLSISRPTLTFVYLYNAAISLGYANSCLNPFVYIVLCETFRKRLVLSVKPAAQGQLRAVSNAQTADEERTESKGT

As a reminder, the EC50 is the concentration at which the effect is half-maximal. A word on the IC50: it is the midpoint of a concentration-inhibition curve. For `CSCC[C@@H]1NC(=O)[C@@H](NC(=O)[C@H](CCCNC(=N)N)NC(C)=O)CSSC[C@@H](C(N)=O)NC(=O)[C@@H]2CCCN2C(=O)[C@H](CCCNC(=N)N)NC(=O)[C@H](Cc2ccc(O)cc2)NC(=O)[C@H](C(C)C)NC(=O)[C@H](CCCNC(=N)N)NC(=O)CNC(=O)[C@H](CC(C)C)NC1=O` [compound 7], the “% Activation at 10 μM” value at human MCH receptor [1] amounted to 123%. Besides, the “Activity Activation %” value on human MCH receptor [1] (Table 2, D-amino acid analogs) came out at 99%; on human MCH receptor [1] (setting [3]), 99%; at human MCH receptor [1] (Table 4, position 6 modification), 99%; on human MCH receptor [1] (setting [4]), 99%; on human MCH receptor [1] (setting [5]), 99%; on human MCH receptor [1] (setting [6]), 99%. Also, the EC50 is 20 nM at human MCH receptor [1] (Table 2, D-amino acid analogs); 20 nM at human MCH receptor [1] (setting [3]); 20 nM at human MCH receptor [1] (setting [4]); 20 nM at human MCH receptor [1] (setting [5]); 20 nM at human MCH receptor [1] (setting [6]). For the same molecule, the IC50 on human MCH receptor [2] (Table 2, D-amino acid analogs, read-out: Activity IC50) amounted to 0.5 nM; on human MCH receptor [2] (Table 3, N-methyl-amino acid analogs, read-out: Activity IC50) it was 1.4 nM; on human MCH receptor [2] (setting [7]), 0.5 nM.
As to `CSCC[C@@H]1NC(=O)[C@@H](NC(=O)[C@H](CCCNC(=N)N)NC(C)=O)CSSC[C@@H](C(=O)N[C@@H](Cc2ccc(O)cc2)C(N)=O)NC(=O)[C@@H]2CCCN2C(=O)[C@H](CCCNC(=N)N)NC(=O)[C@H](Cc2ccccc2)NC(=O)[C@H](C(C)C)NC(=O)[C@H](CCCNC(=N)N)NC(=O)CNC(=O)[C@H](CC(C)C)NC1=O` [compound 8] (Ac-RCMLGRVFRPCY-NH2; disulfide 2-11), the “% Activation at 10 μM” value at human MCH receptor [1] was 123%. Moreover, the IC50 on human MCH receptor [2] (setting [8]) stood at 0.16 nM.
Turning to `CSCC[C@@H]1NC(=O)[C@@H](NC(C)=O)CSSC[C@@H](C(N)=O)NC(=O)[C@@H]2CCCN2C(=O)[C@H](CCCNC(=N)N)NC(=O)[C@H](Cc2ccc(O)cc2)NC(=O)[C@H](C(C)C)NC(=O)[C@H](CCCNC(=N)N)NC(=O)CNC(=O)[C@H](CC(C)C)NC1=O` [compound 9], the “% Activation at 10 μM” value on human MCH receptor [1] was 74%. At human MCH receptor [2] (setting [8]), the IC50 was determined as 1.6 nM.
Taken in the same sequence, the figures for `CSCC[C@@H]1NC(=O)[C@@H](NC(=O)[C@H](CCCNC(=N)N)NC(=O)[C@H](CC(C)C)NC(=O)[C@H](CCSC)NC(=O)[C@H](CC(=O)O)NC(=O)[C@H](Cc2ccccc2)NC(=O)[C@@H](N)CC(=O)O)CSSC[C@@H](C(N)=O)NC(=O)[C@@H]2CCCN2C(=O)[C@H](CCCNC(=N)N)NC(=O)[C@H](Cc2ccc(O)cc2)NC(=O)[C@H](C(C)C)NC(=O)[C@H](CCCNC(=N)N)NC(=O)CNC(=O)[C@H](CC(C)C)NC1=O` [compound 10] (H-DFDMLRCMLGRVYRPC-NH2; disulfide 7-16) were 99% and 0.3 nM.
Consider `CSCC[C@@H]1NC(=O)[C@@H](NC(=O)[C@H](CCCNC(=N)N)NC(C)=O)CSSC[C@@H](C(N)=O)NC(=O)[C@@H]2CCCN2C(=O)[C@H](CCCNC(=N)N)NC(=O)[C@H](Cc2ccc(O)cc2)NC(=O)[C@H](C(C)C)NC(=O)[C@H](CCCNC(=N)N)NC(=O)[C@@H]2CCCN2C(=O)[C@H](CC(C)C)NC1=O` [compound 50], for which the “Activity Activation %” value at human MCH receptor [1] (setting [4]) was 4%. For the same molecule, the IC50 on human MCH receptor [2] (setting [7]) worked out at 700 nM.
Taken in the same sequence, the figures for `CSCC[C@@H]1NC(=O)[C@@H](NC(=O)[C@H](CCCNC(=N)N)NC(C)=O)CSSC[C@@H](C(N)=O)NC(=O)[C@@H]2CCCN2C(=O)[C@H](CCCNC(=N)N)NC(=O)[C@H](Cc2ccc(O)cc2)NC(=O)[C@H](C(C)C)NC(=O)[C@H](CCCNC(=N)N)NC(=O)[C@H](CCCCN)NC(=O)[C@H](CC(C)C)NC1=O` [compound 53] were 25% and 110 nM.
Taken in the same sequence, the figures for `CSCC[C@@H]1NC(=O)[C@@H](NC(=O)[C@H](CCCNC(=N)N)NC(C)=O)CSSC[C@@H](C(N)=O)NC(=O)[C@@H]2CCCN2C(=O)[C@H](CCCNC(=N)N)NC(=O)[C@H](Cc2ccc(O)cc2)NC(=O)[C@H](C(C)C)NC(=O)[C@H](CCCNC(=N)N)NC(=O)[C@H](CCC(=O)O)NC(=O)[C@H](CC(C)C)NC1=O` [compound 54] were 12% and 190 nM.
